{"source": "patent US11661404B2", "about": "“Prodrug compounds activated by AKR1C3 and their use for treating hyperproliferative disorders” (priority 2018, dated 2023)", "system": "mixed HCT116 colon cancer MCLs containing 5% AKR1C3 over-expressing cells", "assay": "High cell density multicellular layer (MCL) assay, bystander cell killing", "type": "cell-based, human", "description": "The MCL model utilised for this evaluation consisted of AKR1C3 overexpressing (activator) cells or non-AKR1C3 expressing (target) cells or a mixture of these two cell types grown in a ratio of 5:95. The mixture of the two distinct cell populations enabled the determination of the extent of the transfer of cytotoxic metabolites from the activator cell to the target cell population.\nPlating efficiencies were calculated as the fraction of colonies formed relative to the number of cells seeded. The compound concentrations for 10% survival (C10) of target cells grown without activators (T), targets in co-culture (Tc) and activators in co-culture (Ac) was determined by interpolation. Bystander effect efficiency (BEE) was calculated as (Log C10T−Log C10Tc)/(Log C10T−Log C10Ac), where BEE is the measure of cytotoxic metabolite transfer. In contrast to PR-104A, preferred compounds of the invention have a minimal BEE, reducing off-target side effects from ablation of neighbouring non-AKR1C3 expressing cells.\nMillicell-CM membrane inserts were coated in calf-skin collagen type III. The collagen solution was prepared dissolving in sterile 0.01 N HCl to a concentration of 3 mg/mL. The collagen solution was diluted (1:5) in sterile 60% ethanol and 100 μL of this solution was used to coat the membrane inserts and left overnight in a sterile environment to dry.\nPrior to adding cells, the inserts were sterilised in 70% ethanol and left to aerate in a sterile environment in order for the ethanol to evaporate. A sterile polyethylene foam ring was placed around each insert to enable subsequent floatation. Single cell suspensions of 1×10^6 cells in a volume of 500 μL was added to each insert. When mixtures of cells were required, 1×10^6 cells of the mixed cell suspension (in 500 μL) were added to each insert. The type of mixed MCLs used in experiments consisted of 95% HCT116^NeoR and 5% HCT116^AKR1C3 cells. The HCT116^NeoR ells were used in this mixture as an AKR1C3 negative cell line which can subsequently be grown in selective medium containing Geneticin (G418), and which enabled discrimination with the AKR1C3 positive cell line (which can be grown in selective medium containing puromycin). The inserts containing cells were placed in a sterile screw-top plastic jar containing 300 mL of α-MEM+10% v/v FBS+1% PSG, with a maximum of 6 inserts in a jar. The inserts were left floating in the medium for 4 hours in a humidified incubator (37° C., 5% CO2) to enable cells to adhere to the collagen coat and then submerged in the medium with a sterile stainless steel grid. Cells were left to grow and form MCLs on the inserts for a period of 3 days by placing the jars in a 37° C. water bath with continuous magnetic stirring of the medium.\nThree days after growth of cells as MCLs in inserts, each insert was inspected with an inverted phase contrast microscope to ensure uniform growth of cells. Suitable MCLs were transferred to 25 mL glass vessels containing 10 mL of medium (α-MEM+10% v/v FBS+1% PSG) with the required drug concentrations. Each insert in the glass vessel was held by a stainless steel loop attached to the lid. The vessels were placed in a 37° C. water bath. Ports on the lid of each bottle enabled gassing with the required gas phase. The glass vessels containing the MCL inserts and drug were left in the 37° C. water bath for 5 hours with continuous gassing and magnetic stirring of medium. The gas phase used was 5% CO2:95% O2, with the high oxygen concentration used to minimise bioreductive drug activation by endogenous one-electron reductases.\nAfter the 5 hour incubation, each insert was trypsinised in 0.07% trypsin in PBS for 10 minutes at 37° C. to dissociate the MCL into a single cell suspension. The dissociated cells were incubated for a further 10 minutes in α-MEM containing 10% FBS and 100 μg/ml DNAase I. Cells were then counted on a Z2 Coulter® Particle Count and Size Analyzer and resuspended in fresh medium. […]", "key": {"[1]": {"settings": "95% HCT116^NeoR : 5% HCT116^AKR1C3, 5 hours"}}}
{"compound": "CN1CCN(S(=O)(=O)c2cc([N+](=O)[O-])ccc2N(CCOS(C)(=O)=O)CCOS(C)(=O)=O)CC1", "note": "[Compound 641, ((2-((4-methylpiperazin-1-yl)sulfonyl)-4-nitrophenyl)azanediyl)bis(ethane-2,1-diyl) dimethanesulfonate]", "values": [{"measurement": "shift in the C10 from T to Tc", "setting": "5% AKR1C3-positive cells", "value": 9, "unit": "fold"}, {"measurement": "activators in co-culture C10 (Ac)", "setting": "[1]", "value": 0.0054, "unit": "µM"}, {"measurement": "targets in co-culture C10 (Tc)", "setting": "[1]", "value": 1.27, "unit": "µM"}, {"measurement": "AKR1C3-positive HCT116 cells clonogenically sterilised", "setting": "concentrations 0.002 μM to 0.2 μM, FIG. 8", "value": "at least 99.9%"}, {"measurement": "sensitivity of AKR1C3 expressing cells vs AKR1C3-negative cells to clonogenic cell kill (T/Ac)", "setting": "high cell density", "value": 2055, "unit": "fold"}, {"measurement": "target cell C10 (T), concentration for 10% survival", "setting": "target cells grown without activators, 5 hours exposure, clonogenic survival", "value": 11.1, "unit": "µM"}]}
